Measurements taken from patent publication EP0152799A1, “Compounds having peripheral calcium antagonist, anticonvulsive and eumetabolic activity, processes for the preparation thereof and pharmaceutical compositions containing them” (PULITZER ITALIANA S.p.A., priority 1984, dated 1985).

How the values were obtained:
[1] = tested on: cerebral district; assay: Cerebral perfusion in the rabbit (cerebral vasodilative activity); format: in vivo; conditions: 0.9 uM i.a.; for Area mm^2 / Difference in pressure / Δ: perfusion of the cerebral district
Experimental: The cerebral vasodilative activity of PU 122 in comparison with Flunarizine was tested by the method of the cerebral perfusion in the rabbit according to the procedure of Von P. Vaupel e H. Hutten (1980), by measurement of the decrease of the peripheral resistances in the cerebral district.
Said changement was determined by means of a transducer, by measuring the hematic pressure at the cerebral level and scoring the lasting of action of the compound under test.
The two test compounds were administered by intraarterial route at the dosage of 0.9 uM, in a volume of 0.2 ml for each animal.

[2] = tested on: Rat hind quarters; assay: Rat hind quarters perfused with hyperkaliemic tyrode (vasodilative activity); conditions: 5 x 10^-5 M; for Perfusion pressure after 10' / Perfusion pressure basal: hyperkaliemic tyrode; for Perfusion pressure Δ: basal minus after 10'
Text: The vasodilative activity of PU 122 in comparison with Flunarizine was further evaluated according to the procedure described by F.N. Fastier and F.H. Smirk, (J. Pharm. Exp. Therap. 89, 256-270; […]), by measuring the antagonist action of the test compound against hyperkaliemia induced vasoconstric- tion.
The compounds under test were used at 5.10^-5 M concentration.

[3] = tested on: rat brain synaptosomes; assay: 45 Ca uptake in synaptosomial preparations (Ca antagonist activity); format: biochemical; conditions: concentration not given
[4] = tested on: human platelet rich plasma (PRP); assay: Platelet aggregation induced by ADP; format: cell-based; conditions: compared with acetylsalicylic acid
Experimental: The inhibitory effect on platelet aggregation induced BY ADP on human platelet rich plasma (PRP) was evaluated for PU 122 in comparison with acetylsalicy lie acid, according to the procedure described by G.V.R. Born (Nature, 194, 927; 1962).

SMILES	Lasting of the effect [1]	Area mm^2 [1]	Difference in pressure [1]	Δ [1]	Perfusion pressure after 10' [2]	Perfusion pressure Δ [2]	Perfusion pressure basal [2]	Ca antagonist activity (effect on 45 Ca uptake) [3]	IC50 platelet antiaggregating activity [4]
Fc1ccc(C(c2ccc(F)cc2)N2CCN(C/C=C/c3ccccc3)CC2)cc1 [Flunarizine, reference compound]	12.50 min	314.2 mm^2	10.25	25.12	95.00	80.00	175.00		
COc1ccc(C=CCN2CCN(C(c3ccc(F)cc3)c3ccc(F)cc3)CC2)cc1OC.Cl.Cl [PU 122, 1-(4,4'-Difluorobenzhydryl)-4-(3,4-dimethoxycinnamyl)piperazine dihydrochloride]	16.70 min	487.14 mm^2	18.75	29.17	90.00	105.00	195.00	-16.4%	substan tially better than that of acetylsalicylic acid
